Experimental data reported in US20180153194A1, “AGENT HAVING ANTI-ICE NUCLEATION ACTIVITY” (THE SCHOOL CORPORATION KANSAI UNIVERSITY, priority 2015, published 2018).

Assays:
[1] = Anti-ice nucleation active performance (supercooling acceleration), droplet-freezing method of Vali, silver iodide; type: physicochemical; conditions: for improvement in anti-ice nucleation activity level of tri-peptide compared to the mono-amino acid: 2.0 mM; for anti-ice nucleation activity (in words): 2.0 mM aqueous solution
Method: Nine hundred microliters of an aqueous solution was prepared by dissolving silver iodide in ultra-pure water to a silver iodide concentration of 1.0 mg/mL.
(§1) A blank sample was prepared by mixing 100 μL of ultra-pure water with 900 μL of the aqueous solution in which silver iodide was dissolved.
The anti-ice nucleation active performance (supercooling acceleration performance) was measured by using the droplet-freezing method of Vali. More specifically, in accordance with the droplet-freezing method of Vali (FIG. 1), an aluminum film was placed on the copper plate of a cold plate chiller (CoolAce CCA-1000, Tokyo Rikakikai Co., Ltd.), and the film was coated with a silicone oil suspension diluted with acetone and chloroform (a solution of acetone:chloroform=1:2). Then, each sample for evaluation or the blank sample was dropped (10 μL each) on 30 points of the surface, the temperature was decreased at a rate of 1.0° C./min, and the temperature at which 50% of the 30 droplets were frozen was considered to be T50.
The droplet-freezing temperature of each sample was referred to as SampleT50, and the droplet-freezing temperature of the blank sample was referred to as BlankT50. Then, the anti-ice nucleation activity level ΔT50 (° C.) was calculated by the following formula:
ΔT50 (° C.)=BlankT50−SampleT50 Formula: […]
(§2) The results are average values of the results of the test performed three times.
as §1
Each sample for evaluation was prepared by mixing 100 μL of the aqueous solutions of Examples 2 and 11 and Comparative Example 10 with 900 μL of the aqueous solution in which silver iodide was dissolved. A blank sample was prepared by mixing 100 μL of ultra-pure water with 900 μL of the aqueous solution in which silver iodide was dissolved.
as §2

[2] = State of tofu after freezing and thawing, and breaking load of tofu; conditions: frozen in liquid nitrogen
Method: Silken tofu (1.5 mm (length)×1.5 mm (width)×1.5 mm (height)) was immersed in the solution of Comparative Example 9 (water, blank) or Example 1 (tyrosine dimer) overnight. Thereafter, the tofu was taken out of the solution, the moisture was wiped off, and then the tofu was wrapped with wrap (plastic wrap). The tofu wrapped in plastic wrap was immersed in liquid nitrogen to be quickly frozen. The frozen tofu was then slowly thawed (warmed at 25° C.) or quickly thawed (warmed at 60° C.). […] The breaking load (N) of tofu was measured by a creep meter (RE2-33005C, Yamaden, Co., Ltd.).

Cooling curve of tofu = conditions: for anti-ice nucleation activity towards tofu (in words): cooling curve compared to Comparative Example 9; for Freezing onset temperature / Temperature at which tofu was completely frozen / Time taken for tofu to be completely frozen: tofu immersed overnight, cooled in freezer at −20° C.
Method: Silken tofu (1.5 mm (length)×1.5 mm (width)×1.5 mm (height)) that was immersed overnight in the solution of Comparative Example 9 (blank), Example 1 (tyrosine dimer), or Example 2 (tyrosine trimer) was cooled.
A thermocouple thermometer (Horiba) was inserted in tofu, and the temperature was measured every 20 seconds in a freezer at −20° C. A cooling curve was then obtained based on the relationship between the temperature (° C.) and the cooling time (in seconds) (FIG. 9). Table 5 below and FIG. 9 show the temperature at which the tofu began to freeze (freezing onset temperature), the temperature at which the tofu was completely frozen, and the time taken for the tofu to be completely frozen.

Pseudomonas fluorescens = test: Effect on different kind of ice nucleation active substance, droplet-freezing method of Vali; type: physicochemical; conditions: towards Pseudomonas fluorescens in place of silver iodide; average of three tests
Method: The anti-ice nucleation active performance (supercooling acceleration performance) was measured by using the droplet-freezing method of Vali. More specifically, in accordance with the droplet-freezing method of Vali (FIG. 1), an aluminum film was placed on the copper plate of a cold plate chiller (CoolAce CCA-1000, Tokyo Rikakikai Co., Ltd.), and the film was coated with a silicone oil suspension diluted with acetone and chloroform (a solution of acetone:chloroform=1:2). […]
The droplet-freezing temperature of each sample was referred to as SampleT50, and the droplet-freezing temperature of the blank sample was referred to as BlankT50. Then, the anti-ice nucleation activity level ΔT50 (° C.) was calculated by the following formula: […]
A sample for evaluation of Example 1 was prepared in a manner similar to that described in Test Example 1, except that Pseudomonas fluorescens, which is the Pseudomonas bacterium, was used in place of silver iodide, which is an ice nucleation active substance. The anti-ice nucleation active performance (supercooling acceleration performance) was measured by using a test method similar to that described in Test Example 1. […]

[3] = Anti-ice nucleation activity test with respect to biological material (beef liver); conditions: 10 μL, final concentration 0.2 mM, dropped on beef liver; blank ultra-pure water
Method: Ten microliters of an aqueous solution in which the aqueous solution of the anti-ice nucleation activator of Example 2 (tyrosine trimer) was diluted 10-fold with ultra-pure water (final concentration: 0.2 mM) was added dropwise on a beef liver (1 mm (length)×1 mm (width)×1 mm (height)). As a blank sample, ultra-pure water was used.
The anti-ice nucleation active performance (supercooling acceleration performance) was measured by using a method similar to the droplet-freezing method of Vali described in Test Example 1. The results are average values of the results of the test performed three times.

[4] = ΔT50 = BlankT50 − SampleT50, 2.0 mM aqueous solution (100 μL) mixed with 900 μL silver iodide 1.0 mg/mL, average of three tests

## Ser-Ser-Ser [Comparative Example 5, reference compound]
[1]; silver iodide
  improvement in anti-ice nucleation activity level of tri-peptide compared to the mono-amino acid: no improvement in the anti-ice nucleation activity level
[1]; [4]
  Anti-ice nucleation activity level: 0.4 °C

## Tyr-Tyr-Tyr [Example 7]
[1]; tyrosine trimer concentration 0.5 mM, silver iodide 1.0 mg/mL
  Anti-ice nucleation activity level: 1.8 °C

## Tyr-Tyr [Example 1]
[1]; [4]
  Anti-ice nucleation activity level: 2.6 °C
[2]; slow or quick thawing
  cavities in the tofu after thawing: no cavities were formed
[2]; tofu immersed overnight, slow thawing (25° C.) and quick thawing (60° C.), compared to Comparative Example 9 (water)
  breaking load of the tofu: low
Cooling curve of tofu
  anti-ice nucleation activity towards tofu (in words): exert anti-ice nucleation activity towards tofu
  Freezing onset temperature: −1.2° ° C.
  Temperature at which tofu was completely frozen: −6.8° ° C.
  Time taken for tofu to be completely frozen: 1120 s

## Tyr-Tyr-Tyr [Example 5]
[1]; tyrosine trimer concentration 0.1 mM, silver iodide 1.0 mg/mL
  Anti-ice nucleation activity level: 2.3 °C

## Tyr-Tyr-Tyr [Example 6]
[1]; tyrosine trimer concentration 0.2 mM, silver iodide 1.0 mg/mL
  Anti-ice nucleation activity level: 3.7 °C

## Phe-Phe-Phe [Comparative Example 3, reference compound]
[1]; silver iodide
  improvement in anti-ice nucleation activity level of tri-peptide compared to the mono-amino acid: no improvement in the anti-ice nucleation activity level
[1]; [4]
  Anti-ice nucleation activity level: 0.3 °C

## Tyr-Tyr-Tyr [Example 9]
[1]; tyrosine trimer concentration 5.0 mM, silver iodide 1.0 mg/mL
  Anti-ice nucleation activity level: 9.2 °C

## N[C@@H](CO)C(=O)O [Comparative Example 6, serine, reference compound]
[1]; [4]
  Anti-ice nucleation activity level: 0.1 °C

## Tyr-Tyr-Tyr-Tyr (YYYY; printed: Tyr-Tyr-Tyr-Tyr) [Example 3]
[1]; [4]
  Anti-ice nucleation activity level: 1.8 °C

## Tyr-Tyr-Tyr-Tyr-Tyr (YYYYY; printed: Tyr-Tyr-Tyr-Tyr-Tyr) [Example 4]
[1]; [4]
  Anti-ice nucleation activity level: 1.7 °C

## Tyr-Tyr-Tyr [Example 8]
[1]; tyrosine trimer concentration 1.0 mM, silver iodide 1.0 mg/mL
  Anti-ice nucleation activity level: 5.7 °C

## Tyr-Tyr-Tyr [Example 2]
Pseudomonas fluorescens
  anti-ice nucleation active performance: 1.9 °C
[1]; silver iodide
  anti-ice nucleation activity (in words): highest anti-ice nucleation activity level
  improvement in anti-ice nucleation activity level of tri-peptide compared to the mono-amino acid: significantly improved anti-ice nucleation activity level
[1]; all concentration levels within 0.1 to 10.0 mM, silver iodide
  anti-ice nucleation active performance (in words): exhibited anti-ice nucleation active performance
[1]; [4]
  Anti-ice nucleation activity level: 10.1 °C
Cooling curve of tofu
  anti-ice nucleation activity towards tofu (in words): exert anti-ice nucleation activity towards tofu
  Freezing onset temperature: −0.8° ° C.
  Temperature at which tofu was completely frozen: −7.8° ° C.
  Time taken for tofu to be completely frozen: 1080 s
[3]
  Anti-ice nucleation activity level: 0.6 °C

## Tyr-Tyr-Tyr [Example 10]
[1]; tyrosine trimer concentration 10.0 mM, silver iodide 1.0 mg/mL
  Anti-ice nucleation activity level: 9.2 °C

## N[C@@H](Cc1ccc(O)cc1)C(=O)O [Comparative Example 1, tyrosine, reference compound]
[1]; silver iodide
  anti-ice nucleation activity (in words): no anti-ice nucleation activity
[1]; [4]
  Anti-ice nucleation activity level: 0.3 °C

## N[C@@H](Cc1ccccc1)C(=O)O [Comparative Example 4, phenylalanine, reference compound]
[1]; [4]
  Anti-ice nucleation activity level: 0.5 °C

## C[C@@H](O)[C@H](N)C(=O)O [Comparative Example 8, threonine, reference compound]
[1]; [4]
  Anti-ice nucleation activity level: 0.1 °C

## Thr-Thr-Thr [Comparative Example 7, reference compound]
[1]; silver iodide
  improvement in anti-ice nucleation activity level of tri-peptide compared to the mono-amino acid: no improvement in the anti-ice nucleation activity level
[1]; [4]
  Anti-ice nucleation activity level: −0.3 °C
